Data published in article PMC5906549, “Cathelicidin-Derived Antimicrobial Peptides Inhibit Zika Virus Through Direct Inactivation and Interferon Pathway” (Frontiers in Immunology, 2018).
Peptide text beside a SMILES is read from it.

Tests used:
[1] = in vitro; settings: African green monkey
Method: (§1) Cell viability was examined by the CellTiter 96 ®Aqueous One Solution Cell Proliferation Assay (Promega, Madison, WI, USA). Vero cells and astrocytes were seeded into 96-well tissue culture plates (Fisher Scientific) and treated with fresh growth medium containing different concentrations of each peptide for 2 or 4 days at 37°C. At the experimental end point, MTS [3-(4,5-dimethylthiazol-2-yl)-5-(3-carboxymethoxyphenyl)-2-(4-sulfophenyl)-2H-tetrazolium] was added to the cultures and incubated for 1 h. The absorbance at 490 nm was recorded through BioTek Gen5 data analysis software (Winooski), VT, optical density (OD) values were used as a representation of cell viability.
(§2) (A) Vero cells were treated with doses of peptides ranging from 1 to 50 µM. After 24 h, the cultures were washed and treated with same doses of peptides in fresh medium for another 24 h. Cell viability was determined by a colorimetric MTS assay. Results shown are the averages ±SD of experiments performed in triplicate. Data were analyzed by non-linear regression. The EC50 was assessed for each of the antimicrobial peptides. (B) Vero cells were treated with doses of peptides ranging from 0.4 to 10 µM for 2 h then infected with ZIKV at the MOI of 0.5. After 24 h, the cultures were washed and treated with same doses of peptides in fresh medium for another 24 h. ZIKA RNA was detected in total cellular RNA through real-time RT-PCR. Data were normalized to GAPDH and presented as fold change (in log scale) compared with ZIKV group. ** p < 0.01 and *** p < 0.001, as compared with the ZIKV group without the peptide treatment (ANOVA, N = 3).
(§3) A, B) Vero cells were treated with 10 µM AMPs for 2 days or 4 days as outlined in the figure. For 4-day treatment, Vero cells were repeatedly treated with 10 µM AMPs at 2-day post-treatment. At the experimental end point, cell viability was determined by a colorimetric MTS assay CellTiter 96® AQueous One Solution Assay (Promega, Madison, WI) based on the manufacture’s instruction. Results were normalized as percentage of cell viability in control astrocytes. CTL, control. * denotes p < 0.05, ** denotes p < 0.01, *** denotes p < 0.001 as compared to the control group without peptide treatment (ANOVA, N = 3).

[2] = tested on: Vero cells; experiment: in vitro
Method: as §1, §2, §3

[3] = tested on: IFN-α2; experiment: IFN-α2 expression in human fetal astrocytes (real-time RT-PCR); assay type: cell-based; settings: for IFN-α2 expression in ZIKV-infected fetal astrocytes: ZIKV MOI 0.5, AMPs 0.4 to 10 µM, 48 h; for IFN-α2 expression in ZIKV-infected fetal astrocytes / IFN-α2 expression in uninfected fetal astrocytes: normalized to 18-s rRNA, N = 3; for IFN-α2 expression in uninfected fetal astrocytes: AMP treatment 48 h
Method: Total mRNA was isolated with TRIzol Reagent (Thermo Fisher Scientific) and RNeasy Mini Kit (QIAGEN Inc., Valencia, CA, USA) following the manufacturer’s recommendations. Two real-time RT-PCR methods were used for the current studies. First, SYBR Green-based RT-PCR assay was used to determine intracellular ZIKV RNA in Vero cells. For this assay, reverse transcription was performed using Verso cDNA synthesis Kit (Thermo Fisher Scientific) and 1 µg of total RNA in a 15-µL final volume. The RT-PCR analyses were performed using 7.5-µL SYBR Green PCR Master Mix (Thermo Fisher Scientific) with 0.5-µL cDNA, 1.5-µL H2O, 5.5-µL oligonucleotide primer pairs at 10 µM. […] GG-3. PCR program: 1, 50°C for 2 min; 2, 95°C for 2 min; 3, 95°C for 15 s; 4, specific annealing temperature for 15 s; 5, 72°C for 1 min. Steps 2–4 were repeated 40 times. All samples were amplified in triplicate for analysis. Relative ZIKV RNA levels were determined and standardized with a GAPDH internal control using comparative ΔΔCT method ([35]). Second, TaqMan-based RT-PCR assay was used to determine intracellular ZIKV RNA and other gene expressions in Figures 3–6 and extracellular ZIKV RNA in Figure 3. The TaqMan assay was performed in a StepOne^TM Real-Time PCR system (Thermo Fisher Scientific). Primers used for TaqMan real-time RT-PCR were all from the Thermo Fisher Scientific, which included ZIKV (forward sequence: 5-[…]-3, reverse sequence: 5- […]-3, and probe sequence: 5′-[…]-3), IFN-α2 (Hs00265051_s1), IFN-β1 (Hs01077958_s1), eukaryotic 18-s rRNA (Hs99999901_s1), β-actin (Hs99999903_m1), and GAPDH (Catalog number: 4310884E). Relative ZIKV mRNA levels were determined and standardized with a GAPDH or 18-s rRNA endogenous control using comparative ΔΔCT method ([35]). […] For ZIKV in supernatants, RNA was extracted from the supernatants through TRIzol™ LS Reagent (Thermo Fisher Scientific, 10296028) following the manufacturer’s manual. […] Quantitative genomic RNA from ZIKV (NR-1838DQ, ATCC) was used as a standard to calculate viral copies.

[4] = tested on: ZIKV strain MR766; experiment: Direct inactivation of ZIKV by AMPs, plaque-forming assay; set-up: species or system Zika virus; settings: 37°C; for Inactivation of Zika virions: plaque assay on Vero; for Number of infectious virions after direct incubation: 10 µM peptide with ZIKV, all the time points (1, 2, 4 h), plaque assay
Method: Vero cells were plated into 12-well plates at 5 (10^5 cells/well the day before infection). On the day of infection, the monolayers of Vero cells were inoculated with 100 µL of 10-fold serial dilutions of viral stocks and incubated at 37 °C for 1 h. After viral inoculation, medium containing ZIKV particles was removed and 1 ml overlay containing 0.6% molecular biology grade agarose (Agarose Unlimited, Alachua, FL, USA) in Modified Eagle Medium (Gibco) with 2% FBS. Cells were maintained at 37°C in 5% CO2 for 4 days. On day 5, cells were fixed with 4% paraformaldehyde solution in PBS and stained with 1% crystal violet solution in 20% methanol in water. Viral plaques were photographed using a CanonScan 9950F scanner and each plaque was counted as a plaque-forming unit (PFU). Viral titer was calculated as PFU/[volume virus (mL) × (dilution factor)].
Zika virus viral stocks were diluted to 10^6 PFU/mL with serum-free medium and peptides were added at the indicated final concentrations. The mixtures were incubated at 37°C for 1–4 h. At each time point, 200 µL of the mixtures was removed for virus yield determination. Ten-fold serial dilutions of the mixtures were prepared and number of infectious Zika virions in the inoculum was determined by the aforementioned plaque-forming assay on Vero cell monolayers.
Figure 7 GF-17 directly inactivates Zika virions. (A) Experimental scheme. Briefly, Zika virus (ZIKV) virions were directly treated with antimicrobial peptides at 37°C. Part of the inoculum was removed at the indicated time points and serial diluted for the plaque-forming assay to determine the number of infectious Zika virions. (B) Quantification of the viral plaques was performed and plaque-forming unit at each of the treatment groups was shown. ANOVA and Bonferroni post-test were performed on all groups. *** p < 0.001, as compared with the ZIKV control group (CTL, control).

[5] = uninfected human fetal astrocytes

CC[C@H](C)[C@H](NC(=O)[C@H](CCCNC(=N)N)NC(=O)[C@H](CCC(N)=O)NC(=O)[C@@H](NC(=O)[C@@H](NC(=O)[C@H](CCCNC(=N)N)NC(=O)[C@H](CCCCN)NC(=O)[C@H](Cc1ccccc1)NC(=O)CN)[C@@H](C)CC)C(C)C)C(=O)N[C@@H](CCCCN)C(=O)N[C@@H](CC(=O)O)C(=O)N[C@@H](Cc1ccccc1)C(=O)N[C@@H](CC(C)C)C(=O)N[C@@H](CCCNC(=N)N)C(=O)N[C@@H](CC(N)=O)C(=O)N[C@@H](CC(C)C)C(=O)N[C@H](C(N)=O)C(C)C [GF-17] (H-GFKRIVQRIKDFLRNLV-NH2; N-terminus and C-terminus assumed)
EC50 at 48 h [1]: > 50 µM | Cytotoxicity to Vero cells at 10 µM [2]: minimal cytotoxicity | IFN-α2 expression in ZIKV-infected fetal astrocytes [3]: significantly increased IFN-α2 expression levels in a dose-dependent manner | IFN-α2 expression in uninfected fetal astrocytes [3, 5]: significantly increased IFN-α2 expression | Inactivation of Zika virions ([4]; 10 µM peptide mixed with ZIKV (10^6 PFU/mL, serum-free medium), 1-h incubation): > 95% | Inactivation of Zika virions ([4]; 10 µM peptide mixed with ZIKV, 2-h incubation): > 99% | Inactivation of Zika virions ([4]; 10 µM peptide mixed with ZIKV, 4-h incubation): 99%

CC[C@H](C)[C@H](NC(=O)[C@H](CCCCN)NC(=O)[C@H](CCCCN)NC(=O)[C@H](Cc1ccccc1)NC(=O)[C@H](CC(C)C)NC(=O)[C@H](CCCCN)NC(=O)[C@H](CCCCN)NC(=O)[C@H](Cc1ccccc1)NC(=O)[C@H](CCCCN)NC(=O)[C@H](CCCCN)NC(=O)[C@H](CCCNC(=N)N)NC(=O)[C@H](Cc1ccccc1)NC(=O)[C@H](CCCNC(=N)N)NC(=O)[C@H](CCCCN)NC(=O)[C@H](Cc1ccccc1)NC(=O)[C@H](CCCNC(=N)N)NC(=O)CN)C(=O)N[C@@H](CO)C(=O)O [BMAP-18] (H-GRFKRFRKKFKKLFKKIS-OH; N-terminus and C-terminus assumed)
EC50 at 48 h [1]: > 50 µM | Cytotoxicity to Vero cells at 10 µM [2]: minimal cytotoxicity | IFN-α2 expression in ZIKV-infected fetal astrocytes [3]: significantly increased IFN-α2 expression levels in a dose-dependent manner | Increase of IFN-α2 expression in uninfected fetal astrocytes ([3]; uninfected human fetal astrocytes, difference not statistically significant): 7 folds | Number of infectious virions after direct incubation [4]: did not significantly change the number of infectious virions

CC[C@H](C)[C@H](NC(=O)[C@H](CCCNC(=N)N)NC(=O)[C@H](CCC(N)=O)NC(=O)[C@@H](NC(=O)[C@@H](NC(=O)[C@@H](N)CCCNC(=N)N)[C@@H](C)CC)C(C)C)C(=O)N[C@@H](CCCCN)C(=O)N[C@@H](CC(=O)O)C(=O)N[C@@H](Cc1ccccc1)C(=O)N[C@@H](CC(C)C)C(=O)O [RI-10, reference compound] (H-RIVQRIKDFL-OH; N-terminus and C-terminus assumed)
EC50 at 48 h [1]: > 50 µM | Cytotoxicity to Vero cells at 10 µM [2]: minimal cytotoxicity | IFN-α2 expression in ZIKV-infected fetal astrocytes [3]: but not RI-10, significantly increased IFN-α2 expression levels | IFN-α2 expression in uninfected fetal astrocytes [3, 5]: did not affect the expression levels of IFN-α2 | Number of infectious virions after direct incubation [4]: did not significantly change the number of infectious virions
